9 compounds from patent US7049334B2, “Enhancement of learning and memory and treatment of amnesia” (priority 2001, dated 2006) can be followed below.

For the first experiment, the system named is Schaffer collateral-CA1 pathway of rat hippocampal slices. The experiment can be described thus: LTP induction in Schaffer collateral-CA1 pathway of hippocampal slices (fEPSP slope). The following applies: fEPSP slope 60 min after weak tetanus (50 Hz, 0.5 s); 1.6 μM perfused 3 min before and 3 min after tetanus. The experiment is classed as cell-based, Wistar rats.
`CNCc1ccc(-c2nn(Cc3ccccc3)c3ccccc23)o1` [Compound 2] gave a fEPSP of 165.9%.

The compound `OCc1ccc(-c2nn(Cc3ccccc3)c3cc(F)ccc23)o1` [Compound 3] showed a fEPSP of 218.9%.

With `COCc1ccc(-c2nn(Cc3ccccc3)c3ccccc23)o1` [Compound 4], the fEPSP was 216.9%.

In the case of `COc1ccc2c(-c3ccc(CO)o3)nn(Cc3ccccc3)c2c1` [Compound 5], the fEPSP is 180.8%.

`OCc1ccc(-c2nn(Cc3ccccc3)c3cc4c(cc23)OCO4)o1` [Compound 6]: the fEPSP amounted to 260.3%.

Compound `COC(=O)c1ccc(-c2nn(Cc3ccccc3)c3ccccc23)o1` [Compound 7] came in with a fEPSP of 200.3%.

With `COC(=O)c1ccc(-c2n[nH]c3ccccc23)o1` [Compound 8], the fEPSP is recorded as 180.6%.

Another experiment relates to hippocampal slices taken from young rats. Put plainly: Plasticity induced by low-frequency stimulation (LTD) in hippocampal slices. The class given is cell-based, Wistar rats. The note with it: 0.02 Hz stimulation; alone. As to the method: After decapitation, brains of either adult ([…], for the induction of long-term potentiation) or young (2–3 weeks old, for the induction of long-term depression) Wistar rats were rapidly removed, and the hippocampus was dissected out. Transverse hippocampal slices (450 μm thickness) were immediately placed in an ice-cold cutting buffer containing 124 mM NaCl, 3 mM KCl, 1.0 mM Na2HPO4, 25 mM NaHCO3, 0.5 mM CaCl2, 5.0 mM MgSO4, 10 mM glucose, saturated with 95% O2 and 5% CO2. The slices were then maintained in an interface chamber at room temperature, and perfused at flow rate of 1–2 mL/min with artificial cerebrospinal fluid (ACSF). The composition of ACSF contained 124 mM NaCl, 4.4 mM KCl, 1.0 mM Na2HPO4, 25 mM NaHCO3, 2.0 mM or 2.5 mM CaCl2, 1.0 mM MgSO4, 10 mM glucose, gassed with 95% O2 and 5% CO2. The field Excitatory Postsynaptic Potentials (fEPSP) was evoked by test pulses through a bipolar stimulating electrode placed on the Schaffer collateral/commissural pathway, and recorded from the stratum radiatum of CA1 using a glass micropipette electrode (5–10 MΩ) filled with 2 M NaCl. The test pulse duration was 100 μsec, and test responses were elicited at 0.02 Hz. To record field potentials in the cortico-amygdala pathway, a stimulating electrode was placed in the external capsule, which contained fibers from the auditory cortex to the lateral amygdala. Bicuculine (10 μM) was present in the perfusion solution when the fEPSPs of amygdala were recorded. To increase the effectiveness of fused pyrazolyl compounds that were applied through the perfusion system, the ACSF level in the recording chamber was sufficiently high to cover the hippocampal slices but not to float them. All fused pyrazolyl compounds were perfused in ACSF.
Evoked fEPSPs were recorded and data were analyzed. The initial slope of the fEPSPs was calculated, and the data were expressed as percentages of the average of the base-line slope of the fEPSPs.
Compound 1 on plasticity induced by low-frequency stimulation (LFS): LFS (900 pulses at 1 Hz) was delivered to hippocampal slices taken from young rats ([…]) to induce long-term depression (LTD). Stimulation of hippocampal slices at 1 Hz for 3 min produced no LTD of synaptic transmission. However, this short-duration LFS induced significant LTD in the presence of Compound 1 (83.4±10.9%, n=3). […] A weaker electrical stimulation at 0.02 Hz was delivered in the presence of both nitric oxide donor nitroprusside ([…]) and Compound 1 (1.6 μM). Simultaneous perfusion of the nitric oxide donor nitroprusside (30 μM) and Compound 1 (1.6 μM) induced LTD.
Regarding nitroprusside [reference compound], the “potentiation of fEPSP at 0.02 Hz stimulation, substance alone” value was “produced no potentiation”.

A further experiment has as its system rats (spatial memory). Put plainly: Morris water maze. The class given is in vivo. The following applies: L-NAME intracerebroventricular (1 mmole/10 mL) 10 min before first trial of daily training. As to the method:
Morris water maze: Morris water maze was performed in a circular pool (224 cm in diameter, 46 cm in height) located in a room with distinctive visual cues. Water was filled to a depth of 36 cm and a transparent plastic platform (25×25 cm, 32 cm in height) was located at the center of a fixed quadrant. Rats were trained for two days in the task environment: free-swimming in the pool without the transparent plastic platform. Each training session was 2 min and the rats were picked up from the pool by an experimenter. Then, rats received 4 consecutive daily training trials for the following six days. During each training trial, each rat was placed into the water randomly from one of the quadrants. The rat had to swim until it climbed onto the plastic platform submerged underneath the water. The time duration from being placed into the water to climbing onto the plastic platform was recorded and defined as escape latency. […] Each rat stayed on the platform for 60 s, which also served as the interval of trial. Compound 1 (1 mg/kg) or vehicle was daily injected to each rat 10 min before the first training trial. After the last training trial of each day, each rat was dried by a towel, and an electric heater was placed in its home cage.
Substantial evidence implicates the hippocampus in acquisition and retention of spatial information. See, e.g., Ohon et al. (1979) Behav. Brain Sci. 2: 316–365; and Barnes (1988) Trend Neurosci. 11: 163–169. The effect of Compound 1 on the acquisition of spatial memory in the Morris water maze was tested. Rats received 4 consecutive training trials every day. Compound 1 (1 mg/kg) was daily injected (i.p., 1 mg/kg) 10 min before the first trial of training. […] The escape latencies of 2˜4 trials were 93.8±8.7 s, 79.3±12/3 s and 57.6±12.5 s for a control group, and 50.4±10.2 s, 47.3±6.8 s and 30.3±10.3 for the Compound 1 group (n=10), respectively. The escape latencies of the first trial on the following 3 training days were also markedly shortened in the Compound 1 group. The escape latencies were 91.1±9.8 s, 47.1±3.9 s and 35.3±6.1 s for the control group, and 55.4±12.8 s, 15.3±2.1 s, and 13.4±1.7 s for the Compound 1 group (n=10), respectively. […] The escape latency is shorter in the Compound 1 group throughout the whole experimental period up to 21 days although Compound 1 was only administered […] for 4 days. The mean escape latency on the day-21 is 13.5±1.8 s and 6.0±0.5 s (n=10 each) for the control group and the Compound 1 group, respectively. From results shown above, Compound 1 is a promising drug for improving learning and memory. Compound 1 was mixed with 1.25% carboxymethylcellulose (CMC) and orally delivered to stomach (10 mg/kg) directly 30 min before the first trial for 6 successive days.
Since L-NAME antagonized Compound 1-induced LTP enhancement in hippocampal slices, in vivo experiments were performed to test the effect of L-NAME on the improved learning and memory provoked by Compound 1. In these experiments, rats chronically implanted with cannulae were injected intracerebroventrically with L-NAME (1 mmole/10 mL) or saline 10 min before the first trial of daily training, concomitant with i.p. injection of Compound 1 (1 mg/kg). […] Intracerebroventricular administration of KT 5823 also impaired the Compound 1-induced enhancement.
`COC(=O)[C@@H](N)CCCNC(=N)N[N+](=O)[O-]` [L-NAME, N^G-nitro-L-arginine-methylester, reference compound]: the “effect of L-NAME on the task” value is “profound amnesia”.
